Measured values: patent US8461186B2, “Use of N-piperidine derivatives for the treatment of neurodegenerative pathologies” (Medestea Research & Production S.p.A., priority 2004, dated 2013)
Where two headings read alike, the source gives them in different places.

How the values were obtained:
[1] = test system: rats receiving Paraquat into Substantia Nigra; type: in vivo, rat; details: for deaths of rats: 120 mg/kg intraperitoneally 5 minutes prior to, simultaneously with, or 5 minutes after 50 μg Paraquat; for signs of alterations during continuous monitoring / survival for a further 24 hours: Paraquat (50 μg) microinfused simultaneously with 1 μg compound; for capacity to cross the blood-brain barrier (BBB): concluded from protection after intraperitoneal administration; for protection against the behavioural and neuropathological effects induced by Paraquat: intracerebral and peripheral administration
Text: The Paraquat/rat/PS experimental model was therefore selected as the most indicative for checking the efficacy of chemical compounds according to the present invention; of these, two anti-oxidants designated MP1002 and MP1001 were used in the tests:
Male Sprague Dawley rats (210-220 g weight) were kept on a standard laboratory diet supplemented with “Nossan Pellets” (both the animals and the pellets are available from Nossan Company, Milan, Italy) and were housed for three weeks (relative humidity 50%±10%, temperature 22° C.±1 and in a light/darkness cycle of 12 hours/12 hours, with first light at 7.30 a.m.) prior to the tests; food and water were available ad libitum.
Prior to treatment, the rats were anaesthetized by intraperitoneal injection of 380 mg/kg weight of chloral hydrate; a stainless steel guide cannula (size 25) was implanted unilaterally in the Substantia Nigra with stereotaxic guiding and was secured to the cranium with dental acrylic material.
The animals (20 per test group) were allowed a recovery period of seven days prior to treatment; during this period no change in motor activity or posture was observed. Microinfusions were performed by means of a 10 μl Hamilton syringe connected to an injection cannula by means of a Teflon tube. The compounds or the vehicle (0.8% NaCl) were injected at a total volume of 1 μl/minute.
Microinfusion of 50 μg of Paraquat into the Substantia Nigra (n=20 rats) led to an increase in motor activity with the animals performing jumps and moving in circles in a contralateral direction relative to the injection position, about 24 minutes later; all of the animals were dead 24±2.5 hours after infusion. A further twenty animals were infused with Paraquat and twenty with Paraquat plus vehicle; about ten of the animals for each group survived 20 hours after treatment and were used to determine the development of lipid peroxidation in the Substantia Nigra.

[2] = test system: myocardial ischaemia and reperfusion (I/R) in the rat; test: Myocardial lesion due to ischaemia and reperfusion (LAD occlusion): size of the infarct; type: in vivo; details: 10 mg/kg bolus 5 minutes prior to reperfusion, then 2 mg/kg/h; LAD occlusion 25 minutes, reperfusion 2 hours; p<0.01 (FIG. 1)
Experimental: The in vivo model of myocardial lesion due to ischaemia and reperfusion was selected as the most suitable for checking the efficacy of the compounds MP1002 and MP1001 according to the invention.
Male Sprague Dawley rats (220-230 g) were kept on a standard laboratory diet supplemented with “Nossan Pellets” (Nossan Company, Milan, Italy) and were housed for three weeks prior to the tests (relative humidity 50%±10, temperature 22° C.±1 and light/darkness cycle of 12/12 hours with first light at 7.30 a.m.); food and water were available ad libitum.
The rats (twenty per group) were anaesthetized by intraperitoneal injection of chloral hydrate (380 mg/kg) and were then tracheotomized, intubated and ventilated with ambient air by a suitable ventilator; body temperature was kept at 38° C.±1 and the right carotid artery was cannulated and connected to a pressure transducer to monitor the mean arterial blood pressure (MAP). […]
The coronary artery was occluded by tightening the occluder, a procedure which is correlated with the electrocardiographic and haemodynamic changes (drop in MAP) which are typical of myocardial ischaemia. […] The heart rate (HR) and MAP were monitored continuously. […]

[3] = test system: lipid peroxidation in the heart tissue; test: Malondialdehyde (MDA) in the heart tissue in myocardial ischaemia and reperfusion; type: in vivo, rat; details: I/R rats, 10 mg/kg bolus then 2 mg/kg/h; p<0.01 (FIG. 2)
Experimental: […]. Enzymol. 52, 302-310, 1978.
(§1) The following test groups were considered: a) LAD occlusion (25 minutes) and reperfusion (2 hours) plus administration of the vehicle (saline solution, 3 ml/kg-v-bolus plus 1.8 ml/kg/h) starting 5 minutes after reperfusion and maintained during the reperfusion period; b) LAD occlusion and reperfusion plus administration of MP1002 or MP1001 (10 mg/kg injection in bolus) 5 minutes prior to reperfusion, followed by infusion of 2 mg/kg/h during the reperfusion period; c) sham operation (no LAD occlusion) and infusion of the vehicle; d) sham operation and infusion of MP1002 or MP1001 as described above.
The malondialdehyde (MDA) in the heart tissue as final peroxidation product of the cell membrane lipids was also determined as described above.

[4] = test system: mean arterial blood pressure (MAP) and heart rate (HR) in the rat; test: Mean arterial blood pressure (MAP) and heart rate (HR) in myocardial ischaemia and reperfusion; type: in vivo; details: for HR: in beats/min (unit assumed); for MAP: in mmHg (unit assumed); for mean MAP and HR values versus the I/R group treated with the vehicle alone: rats subjected to I/R; for haemodynamic effects of infusion: sham operations (no LAD occlusion)
Experimental: The rats (twenty per group) were anaesthetized by intraperitoneal injection of chloral hydrate (380 mg/kg) and were then tracheotomized, intubated and ventilated with ambient air by a suitable ventilator; body temperature was kept at 38° C.±1 and the right carotid artery was cannulated and connected to a pressure transducer to monitor the mean arterial blood pressure (MAP).
The coronary artery was occluded by tightening the occluder, a procedure which is correlated with the electrocardiographic and haemodynamic changes (drop in MAP) which are typical of myocardial ischaemia. After 25 minutes of myocardial ischaemia, the occluder was reopened, permitting reperfusion for 2 hours. The heart rate (HR) and MAP were monitored continuously.
as §1
The base haemodynamic results were similar in the various groups considered.

[5] = 50 μg paraquat by microinfusion, 5 minutes later 100 mg/kg b.w. intraperitoneal
[6] = pretreated intraperitoneally 120 mg/kg b.w., after 5 minutes paraquat (50 μg) by microinfusion
[7] = simultaneous microinfusion into Substantia Nigra of paraquat (50 μg) with 1 μg compound
[8] = simultaneously 50 μg paraquat by microinfusion and 120 mg/kg b.w. intraperitoneal
[9] = Sham operation, Occlusion 15 min
[10] = Sham operation, Occlusion 25 min
[11] = Sham operation, Reperfusion 15 min
[12] = Sham operation, Reperfusion 25 min

CC1(C)CC(OC(=O)CCCCCCCCC(=O)OC2CC(C)(C)N(O)C(C)(C)C2)CC(C)(C)N1O [MP1001, BIS(1-HYDROXYL-2,2,6,6-TETRAMETHYL-4-PIPERIDINYL)DECANDIOATE]
Duration (seizures) [1, 5]: No seizures and epileptic discharges | Latency (seizures) [1, 5]: No seizures and epileptic discharges | Mortality [1, 5]: 0% | deaths of rats [1]: none of the rats died | signs of alterations during continuous monitoring [1]: no signs of alterations were observed | survival for a further 24 hours [1]: all of the animals survived | capacity to cross the blood-brain barrier (BBB) [1]: cross the blood-brain barrier | protection against the behavioural and neuropathological effects induced by Paraquat [1]: protected completely | Duration (seizures) [1, 6]: No seizures and epileptic discharges | Latency (seizures) [1, 6]: No seizures and epileptic discharges | Mortality [1, 6]: 0% | Duration (seizures) [1, 7]: No seizures and epileptic discharges | Latency (seizures) [1, 7]: No seizures and epileptic discharges | Mortality [1, 7]: 0% | Duration (seizures) [1, 8]: No seizures and epileptic discharges | Latency (seizures) [1, 8]: No seizures and epileptic discharges | Mortality [1, 8]: 0% | reduction in the size of the infarct compared with the control [2]: 78% | development of lipid peroxidation in heart tissue (MDA) [3]: reduced the development of peroxidation to levels similar to those of the animals that were subjected to sham operations | HR ([4]; I/R, Baseline): 435 ± 25 | MAP ([4]; I/R, Baseline): 125 ± 9 | HR ([4]; I/R, Occlusion 15 min): 438 ± 31 | MAP ([4]; I/R, Occlusion 15 min): 118 ± 12 | HR ([4]; I/R, Occlusion 25 min): 430 ± 28 | MAP ([4]; I/R, Occlusion 25 min): 111 ± 13 | HR ([4]; I/R, Reperfusion 15 min): 425 ± 28 | MAP ([4]; I/R, Reperfusion 15 min): 100 ± 10 | HR ([4]; I/R, Reperfusion 25 min): 427 ± 26 | MAP ([4]; I/R, Reperfusion 25 min): 95 ± 8 | HR ([4]; Sham operation, Baseline): 422 ± 33 | MAP ([4]; Sham operation, Baseline): 127 ± 16 | HR [4, 9]: 422 ± 26 | MAP [4, 9]: 125 ± 13 | HR [4, 10]: 424 ± 48 | MAP [4, 10]: 121 ± 11 | HR [4, 11]: 427 ± 27 | MAP [4, 11]: 112 ± 8 | HR [4, 12]: 427 ± 23 | MAP [4, 12]: 107 ± 16 | mean MAP and HR values versus the I/R group treated with the vehicle alone [4]: not significantly different | haemodynamic effects of infusion [4]: no substantial haemodynamic effects

CC1(C)CC(OC(=O)CCCCCCCCC(=O)OC2CC(C)(C)N(O)C(C)(C)C2)CC(C)(C)N1O [MP1002, bis(1-oxyl-2,2,6,6-tetramethyl-4-piperidinyl)decandioate]
Duration (seizures) [1, 5]: No seizures and epileptic discharges | Latency (seizures) [1, 5]: No seizures and epileptic discharges | Mortality [1, 5]: 0% | deaths of rats [1]: none of the rats died | signs of alterations during continuous monitoring [1]: no signs of alterations were observed | survival for a further 24 hours [1]: all of the animals survived | capacity to cross the blood-brain barrier (BBB) [1]: cross the blood-brain barrier | protection against the behavioural and neuropathological effects induced by Paraquat [1]: protected completely | Duration (seizures) [1, 6]: No seizures and epileptic discharges | Latency (seizures) [1, 6]: No seizures and epileptic discharges | Mortality [1, 6]: 0% | Duration (seizures) [1, 7]: No seizures and epileptic discharges | Latency (seizures) [1, 7]: No seizures and epileptic discharges | Mortality [1, 7]: 0% | Duration (seizures) [1, 8]: No seizures and epileptic discharges | Latency (seizures) [1, 8]: No seizures and epileptic discharges | Mortality [1, 8]: 0% | reduction in the size of the infarct compared with the control [2]: 80% | development of lipid peroxidation in heart tissue (MDA) [3]: reduced the development of peroxidation to levels similar to those of the animals that were subjected to sham operations | HR ([4]; I/R, Baseline): 438 ± 30 | MAP ([4]; I/R, Baseline): 127 ± 14 | HR ([4]; I/R, Occlusion 15 min): 437 ± 32 | MAP ([4]; I/R, Occlusion 15 min): 121 ± 14 | HR ([4]; I/R, Occlusion 25 min): 431 ± 24 | MAP ([4]; I/R, Occlusion 25 min): 114 ± 10 | HR ([4]; I/R, Reperfusion 15 min): 427 ± 29 | MAP ([4]; I/R, Reperfusion 15 min): 102 ± 11 | HR ([4]; I/R, Reperfusion 25 min): 429 ± 25 | MAP ([4]; I/R, Reperfusion 25 min): 97 ± 9 | HR ([4]; Sham operation, Baseline): 421 ± 26 | MAP ([4]; Sham operation, Baseline): 125 ± 15 | HR [4, 9]: 420 ± 33 | MAP [4, 9]: 123 ± 16 | HR [4, 10]: 422 ± 25 | MAP [4, 10]: 120 ± 11 | HR [4, 11]: 428 ± 26 | MAP [4, 11]: 110 ± 12 | HR [4, 12]: 426 ± 32 | MAP [4, 12]: 105 ± 9 | mean MAP and HR values versus the I/R group treated with the vehicle alone [4]: not significantly different | haemodynamic effects of infusion [4]: no substantial haemodynamic effects
